According to US12410153B2, “Compounds, compositions and methods” (Avalo Therapeutics, Inc., priority 2014, dated 2025):
Read-outs that look alike come from different tables or passages of the source.

Assays:
[1] = target: T1, NMDA-GluN2B receptors, human temporal cortex homogenate (Homo sapiens, UniProt Q05586+Q13224); test: Radioligand binding, human temporal cortex homogenate; conditions: geometric mean
T1 construct: temporal cortex homogenate (human); from tissue; host or cells: human temporal cortex homogenate
Description: (§1) Radioligand binding assays were performed at room temperature (or 37° C.) in 96-well microtiter plates with a final assay volume of […] in 20 mM HEPES buffer (pH 7.4) containing 150 mM NaCl. […] Nonspecific binding was assessed using N-(3-chlorobenzyl)-4-iodobenzimidamide (final concentration, 10 μM), and total binding was measured by addition of DMSO (final concentration, 2%). L(tk−) cell membranes expressing human GluN1a/GluN2B receptors (final concentration, 40 pM) and [^3H]-[(E)-N1-(2-methoxybenzyl)-cinnamamidine] (final concentration, 1 nM) were added to all wells of the microtiter plate. After 3 h (24 h or 48 h) of incubation at room temperature (or 37° C.), samples were filtered through Packard GF/B filters (presoaked in 0.05% polyethylenimine [PEI; Sigma P-3143]) and washed 10 times with 1 mL of cold 20 mM HEPES buffer per wash. After vacuum drying of the filter plates, 50 μL of Packard Microscint-20 was added and the bound radioactivity determined in a Packard TopCount.
(§2) Analogous binding experiments, to those described above for the cloned human receptor expressed in L(tk−) cells, were also performed using whole brain homogenate (rat), frontal cortex homogenate (dog and rhesus monkey), and temporal cortex homogenate (human).

[2] = target: T2, NMDA-GluN2B receptors, rat whole brain homogenate (Rattus norvegicus, UniProt P35439+Q00960); test: Radioligand binding, rat whole brain homogenate; conditions: geometric mean
T2 construct: performed using whole brain homogenate (rat); from tissue; host or cells: rat whole brain homogenate
T2 sequence (Q00960 27-1482, other chains not shown): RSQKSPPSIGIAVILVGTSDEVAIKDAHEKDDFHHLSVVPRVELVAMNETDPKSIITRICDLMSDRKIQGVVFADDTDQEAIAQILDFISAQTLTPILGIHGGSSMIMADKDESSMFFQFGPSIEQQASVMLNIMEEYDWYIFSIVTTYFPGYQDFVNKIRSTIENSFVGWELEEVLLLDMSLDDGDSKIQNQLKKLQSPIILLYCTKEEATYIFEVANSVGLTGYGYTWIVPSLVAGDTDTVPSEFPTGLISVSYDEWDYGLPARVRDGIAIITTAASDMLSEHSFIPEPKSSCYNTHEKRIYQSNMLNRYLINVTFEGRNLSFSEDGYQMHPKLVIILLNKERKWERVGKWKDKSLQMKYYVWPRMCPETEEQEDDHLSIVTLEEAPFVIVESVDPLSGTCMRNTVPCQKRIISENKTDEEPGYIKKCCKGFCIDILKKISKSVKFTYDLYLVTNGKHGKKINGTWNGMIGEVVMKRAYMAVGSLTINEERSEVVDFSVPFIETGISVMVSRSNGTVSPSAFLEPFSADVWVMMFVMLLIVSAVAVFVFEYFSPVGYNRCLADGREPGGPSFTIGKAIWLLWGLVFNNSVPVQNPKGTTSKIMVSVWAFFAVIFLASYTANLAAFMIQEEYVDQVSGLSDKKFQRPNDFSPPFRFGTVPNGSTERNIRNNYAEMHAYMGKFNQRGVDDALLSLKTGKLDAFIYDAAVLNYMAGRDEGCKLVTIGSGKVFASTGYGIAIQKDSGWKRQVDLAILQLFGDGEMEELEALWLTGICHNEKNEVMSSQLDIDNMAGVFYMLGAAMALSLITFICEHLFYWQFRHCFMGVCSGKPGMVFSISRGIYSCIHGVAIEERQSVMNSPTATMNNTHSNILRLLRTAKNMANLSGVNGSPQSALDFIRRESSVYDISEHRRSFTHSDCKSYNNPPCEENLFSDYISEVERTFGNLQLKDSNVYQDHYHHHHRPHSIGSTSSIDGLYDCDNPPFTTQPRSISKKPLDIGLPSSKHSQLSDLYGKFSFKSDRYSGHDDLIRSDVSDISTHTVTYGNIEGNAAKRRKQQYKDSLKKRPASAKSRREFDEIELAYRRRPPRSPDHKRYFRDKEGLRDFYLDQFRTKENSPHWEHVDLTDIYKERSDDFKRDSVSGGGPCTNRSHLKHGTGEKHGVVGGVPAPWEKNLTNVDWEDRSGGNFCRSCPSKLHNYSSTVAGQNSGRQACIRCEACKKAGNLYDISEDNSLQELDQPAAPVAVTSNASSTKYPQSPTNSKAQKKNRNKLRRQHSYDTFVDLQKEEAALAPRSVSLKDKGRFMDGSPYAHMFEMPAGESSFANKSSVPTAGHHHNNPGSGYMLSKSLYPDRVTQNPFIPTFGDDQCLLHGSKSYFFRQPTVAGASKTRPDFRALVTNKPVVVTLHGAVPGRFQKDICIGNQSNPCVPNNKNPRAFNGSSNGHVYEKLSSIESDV
Description: as §1, §2

[3] = Acute depression model, forced swim test; assay type: in vivo, rat; conditions: male, Sprague-Dawley, rat, plasma, read-out: plasma level at time of sampling
Description: (§3) Young, adult, male Sprague-Dawley rats were randomly assigned across the treatment groups and were administered vehicle (0.5% MC/0.02% SLS), the reference compound desipramine (20 mg/kg; a tricyclic antidepressant; Sigma, Lot #078K1326) dissolved in sterile water, or crystalline Form II of Compound (I) (0.1, 0.3, 1, 3, 10, and 30 mg/kg) suspended in 0.5% MC/0.02% SLS, twice on Day 1 (after habituation; ˜24 h prior to test, and prior to dark cycle) and once on Day 2 (30 min pre-test for desipramine and 45 min pre-test for Form II and vehicle).
(§4) Each Forced Swim chamber was constructed of clear acrylic (height, 40 cm; diameter, 20.3 cm). Rats were subjected to a pre-dose swim test of one 15-min session in cylinders containing water at 23° C.±1° C., followed approximately 24 h later by the experimental 5-min session. The water level was 16 cm deep during habituation and 30 cm deep during the test. Immobility, climbing, and swimming behaviors were recorded every 5 s for a total of 60 counts per subject. When an animal was unable to maintain a posture with its nose above water, it was immediately removed from the water and eliminated from the study. Blood was collected at the completion of swim test procedures and plasma was analyzed for Form II concentrations.

Sprague-Dawley rats [4] = test: Acute depression model, forced swim test; assay type: in vivo, rat; conditions: for RO: corresponding to plasma level; for ED50: Rattus norvegicus
Description: as §3, §4

Sprague-Dawley rats [5] = test: Rat forced swim test 24 hours after administration; assay type: in vivo; conditions: 10 mg/kg, p.o., 24 hours before test, p<0.05
Description: This study aimed to evaluate the duration of the antidepressant-like effects of Form II of Compound (I) using the forced swim test in male, Sprague-Dawley rats. Clinically effective antidepressant compounds reduce immobility time and increase swimming in rodents subjected to this test. Rats received Compound (I) (10 mg/kg, p.o.) or ketamine (10 mg/kg, i.p.) and 24 hours later were subjected to testing. […] The data represent mean±SEM.

[6] = target: GluN1a/GluN2B human receptors (Homo sapiens, UniProt Q05586+Q13224); test: Radioligand binding, L(tk−) cell membranes expressing human GluN1a/GluN2B; parameters: expressed in transfected cells; host or cells: L(tk−) cells (mouse fibroblasts), dexamethasone-inducible expression; conditions: geometric mean
GluN1a/GluN2B human receptors, sequence (Q13224 27-1484, other chains not shown): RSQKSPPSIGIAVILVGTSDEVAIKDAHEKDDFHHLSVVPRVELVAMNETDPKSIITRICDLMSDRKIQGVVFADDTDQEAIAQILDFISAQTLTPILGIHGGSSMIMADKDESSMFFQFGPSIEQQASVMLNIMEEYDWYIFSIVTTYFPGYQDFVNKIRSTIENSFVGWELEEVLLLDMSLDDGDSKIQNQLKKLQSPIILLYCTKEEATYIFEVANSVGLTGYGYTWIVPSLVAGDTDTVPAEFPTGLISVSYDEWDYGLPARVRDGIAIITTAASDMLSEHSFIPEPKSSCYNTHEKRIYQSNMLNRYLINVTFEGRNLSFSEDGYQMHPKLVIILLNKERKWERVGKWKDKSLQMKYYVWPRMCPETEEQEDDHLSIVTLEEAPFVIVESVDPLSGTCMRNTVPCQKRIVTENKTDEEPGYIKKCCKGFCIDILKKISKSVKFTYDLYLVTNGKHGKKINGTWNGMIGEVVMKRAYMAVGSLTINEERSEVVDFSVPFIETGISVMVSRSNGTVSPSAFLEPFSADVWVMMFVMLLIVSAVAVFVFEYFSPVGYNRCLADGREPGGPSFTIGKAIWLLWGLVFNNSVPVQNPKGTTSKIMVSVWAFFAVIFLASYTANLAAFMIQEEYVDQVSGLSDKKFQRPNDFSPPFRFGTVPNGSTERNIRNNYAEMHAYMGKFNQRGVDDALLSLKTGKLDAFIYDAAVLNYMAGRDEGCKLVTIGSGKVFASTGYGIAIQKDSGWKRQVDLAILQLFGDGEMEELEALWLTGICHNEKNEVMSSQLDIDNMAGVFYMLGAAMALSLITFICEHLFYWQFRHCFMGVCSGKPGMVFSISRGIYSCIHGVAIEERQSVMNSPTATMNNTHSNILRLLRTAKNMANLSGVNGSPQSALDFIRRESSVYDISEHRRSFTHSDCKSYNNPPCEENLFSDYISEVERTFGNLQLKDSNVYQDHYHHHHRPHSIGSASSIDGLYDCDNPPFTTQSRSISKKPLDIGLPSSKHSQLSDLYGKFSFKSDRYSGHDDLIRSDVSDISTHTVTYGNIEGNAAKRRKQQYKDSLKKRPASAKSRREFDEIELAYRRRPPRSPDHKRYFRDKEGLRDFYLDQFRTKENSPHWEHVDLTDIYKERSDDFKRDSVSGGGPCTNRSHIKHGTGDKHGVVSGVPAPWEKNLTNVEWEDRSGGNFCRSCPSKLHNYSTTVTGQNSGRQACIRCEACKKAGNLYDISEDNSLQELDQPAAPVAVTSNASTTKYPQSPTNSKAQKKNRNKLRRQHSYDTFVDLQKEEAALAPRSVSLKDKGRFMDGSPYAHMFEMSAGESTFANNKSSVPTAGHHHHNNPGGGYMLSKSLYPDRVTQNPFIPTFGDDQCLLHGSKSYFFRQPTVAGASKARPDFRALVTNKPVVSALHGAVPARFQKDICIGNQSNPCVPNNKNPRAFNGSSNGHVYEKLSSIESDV

[7] = target: T3, NMDA-GluN2B receptors, rhesus monkey frontal cortex homogenate (Macaca mulatta, UniProt F6T8S6); test: Radioligand binding, rhesus frontal cortex homogenate; conditions: geometric mean
T3 construct: frontal cortex homogenate (dog and rhesus monkey); from tissue; host or cells: rhesus monkey frontal cortex homogenate
T3 sequence (F6T8S6 29-1484): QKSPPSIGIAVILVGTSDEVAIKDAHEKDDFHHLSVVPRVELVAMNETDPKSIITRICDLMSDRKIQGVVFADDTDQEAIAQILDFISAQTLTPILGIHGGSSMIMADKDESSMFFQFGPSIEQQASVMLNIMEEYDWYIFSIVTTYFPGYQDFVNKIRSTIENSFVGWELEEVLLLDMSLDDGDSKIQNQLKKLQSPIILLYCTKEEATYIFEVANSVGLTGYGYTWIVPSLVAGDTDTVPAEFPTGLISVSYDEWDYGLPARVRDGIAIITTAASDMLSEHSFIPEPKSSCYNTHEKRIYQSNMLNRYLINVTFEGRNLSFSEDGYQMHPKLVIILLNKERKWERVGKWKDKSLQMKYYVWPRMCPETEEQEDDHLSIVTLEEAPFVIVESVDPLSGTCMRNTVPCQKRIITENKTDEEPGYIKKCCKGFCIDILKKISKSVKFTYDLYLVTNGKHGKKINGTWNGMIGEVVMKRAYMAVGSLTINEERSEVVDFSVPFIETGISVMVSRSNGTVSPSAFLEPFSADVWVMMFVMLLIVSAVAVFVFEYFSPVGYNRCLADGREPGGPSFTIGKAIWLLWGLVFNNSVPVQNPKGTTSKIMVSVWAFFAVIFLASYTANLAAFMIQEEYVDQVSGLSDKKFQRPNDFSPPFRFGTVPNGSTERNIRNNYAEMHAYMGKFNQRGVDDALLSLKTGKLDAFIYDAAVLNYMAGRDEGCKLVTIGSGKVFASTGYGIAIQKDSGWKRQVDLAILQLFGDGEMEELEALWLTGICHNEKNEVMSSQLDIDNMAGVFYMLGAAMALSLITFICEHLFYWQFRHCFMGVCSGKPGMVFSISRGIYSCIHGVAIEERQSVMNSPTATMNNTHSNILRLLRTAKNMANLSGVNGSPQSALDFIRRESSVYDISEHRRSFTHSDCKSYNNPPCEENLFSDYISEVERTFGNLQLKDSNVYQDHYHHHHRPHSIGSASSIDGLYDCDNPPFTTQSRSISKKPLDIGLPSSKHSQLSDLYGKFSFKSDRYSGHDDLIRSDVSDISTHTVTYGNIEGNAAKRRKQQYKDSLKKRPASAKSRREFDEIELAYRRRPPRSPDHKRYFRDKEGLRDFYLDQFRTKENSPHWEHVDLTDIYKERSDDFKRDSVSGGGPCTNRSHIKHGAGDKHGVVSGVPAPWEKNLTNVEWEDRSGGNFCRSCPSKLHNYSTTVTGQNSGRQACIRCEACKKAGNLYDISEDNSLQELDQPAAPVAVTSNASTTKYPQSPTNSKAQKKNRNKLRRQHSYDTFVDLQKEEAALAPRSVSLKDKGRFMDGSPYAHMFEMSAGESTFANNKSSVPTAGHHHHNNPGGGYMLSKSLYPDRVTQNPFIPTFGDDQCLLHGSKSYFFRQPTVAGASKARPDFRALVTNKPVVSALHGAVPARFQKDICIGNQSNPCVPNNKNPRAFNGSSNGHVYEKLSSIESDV
Description: as §1, §2

[8] = Polymorph stability (slurry and heating, XRPD); assay type: physicochemical; conditions: between room temperature and 121° C.
Description: Crystalline Form II of Compound (I) was characterized using X-ray powder diffraction (XRPD) (FIG. 1A). The XRPD pattern corresponds to an anhydrous form denoted as Form II, which is highly crystalline. In addition to Form II, Compound (I) can exist as another anhydrous polymorph, denoted as Form I. The XRPD patterns of these phases are shown in FIG. 1B. A slurry experiment was performed at room temperature by adding approximately equal proportions of the two anhydrous phases to methyl-tert-butyl ether.

Cc1ccc(COC(=O)N2CC[C@H](CNc3ncccn3)[C@H](F)C2)cc1 [Form II, 4-methylbenzyl (3S, 4R)-3-fluoro-4-[(pyrimidin-2-ylamino)methyl] piperidine-1-carboxylate]
Ki ([1]; 37° C.): 8.1 nM | Ki ([1]; room temp.): 3.1 nM | Ki ([2]; 37° C.): 14 nM | Ki ([2]; room temp.): 3.3 nM | concentration at 50 min ([3]; 0.1 mg/kg): ~15 nM | concentration at 50 min ([3]; 0.3 mg/kg): ~120 nM | concentration at 50 min ([3]; 1 mg/kg): ~390 nM | concentration at 50 min ([3]; 3 mg/kg): ~1420 nM | concentration at 50 min ([3]; 10 mg/kg): ~4700 nM | concentration at 50 min ([3]; 30 mg/kg): ~14100 nM | RO (Sprague-Dawley rats [4]; 0.1 mg/kg): approximately 5% | RO (Sprague-Dawley rats [4]; 0.3 mg/kg): ~29% | RO (Sprague-Dawley rats [4]; 1 mg/kg): ~56% | RO (Sprague-Dawley rats [4]; 3 mg/kg): ~83% | RO (Sprague-Dawley rats [4]; 10 mg/kg): ~94% | RO (Sprague-Dawley rats [4]; 30 mg/kg): ~98% | climbing behavior (Sprague-Dawley rats [4]; 1, 3, 10, and 30 mg/kg vs vehicle): did not affect climbing behavior except at the dose of 3 mg/kg | immobility frequency (Sprague-Dawley rats [4]; 1, 3, 10, and 30 mg/kg vs vehicle, P<0.001): significantly decreased | swimming behavior (Sprague-Dawley rats [4]; 1, 3, 10, and 30 mg/kg vs vehicle, P<0.01 (P<0.05 for 10 mg/kg)): significantly increased | ED50 (Sprague-Dawley rats [4]; read-out: ED50 for decrease in immobility): ~0.7 mg/kg | ED50 (Sprague-Dawley rats [4]; read-out: ED50 for increase in frequency of swimming): ~0.3 mg/kg | RO corresponding to ED50 for immobility (Sprague-Dawley rats [4]; rat, in vivo): ~50% | RO corresponding to ED50 for swimming (Sprague-Dawley rats [4]; rat, in vivo): ~30% | immobility (Sprague-Dawley rats [5]): reduced immobility | swim time (Sprague-Dawley rats [5]): increased swim time significantly | Ki ([6]; 4° C.): 1.8 nM | Ki ([6]; 37° C.): 31 nM | Ki ([6]; room temp.): 4.9 nM | Ki ([7]; 37° C.): 14 nM | Ki ([7]; room temp.): 3.1 nM | thermodynamic stability of polymorph [8]: thermodynamically stable form
